Experiments:
HCV NS5B = molecular target: T1, HCV NS5B (Hepatitis C virus genotype 1b, UniProt Q9WMX2); experiment: Inhibition of viral RNA-dependent RNA polymerase (RdRp), in vitro biochemical assay; set-up: species or system HCV genotype 1b virus (BB7); conditions: HCV NS5B RdRp, BB7 (genotype 1b); reported as class symbols; read-out: HCV pol-BB7 IC50
T1 construct: fusion protein, of which the carboxyl terminal 21 amino acids were removed to enhance its solubility; His tag (GSHHHHHH); made in house; host or cells: E. coli
Procedure, shortened: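 IC50 values are the concentrations that halve in vitro RNA synthesis by HCV NS5B polymerase. The enzyme was a C-terminally truncated (Δ21), His-tagged genotype 1b (BB7 consensus) protein purified from E. coli.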

[1] = system: HCV replicon (BB7 sequence) in Huh-7-Clone A cells; experiment: HCV replicon assay: ELISA of NS5A protein in replicon-containing cells (Inhibition of Viral RNA Replication); type: cell-based; conditions: Hepatitis C virus; HCV replicon assay; ranges of EC50; read-out: Replicon
Procedure, shortened: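 EC50 taken from an 8-point serially diluted dose curve, with NS5A level as read-out: fixed cells probed with primary monoclonal and HRP-conjugated secondary, TMB developed 30 min, OD 650 nm. Compound exposure 72 h in Huh-7-Clone A replicon cells (BB7 sequence).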

**Q.** For CCCOc1cc2c(C(=O)NC)c(-c3ccc(F)cc3)oc2cc1N(COC)S(C)(=O)=O [Example 443, 2-(4-Fluoro-phenyl)-6-(methanesulfonyl-methoxymethyl-amino)-5-propoxy-benzofuran-3-carboxylic acid methylamide], which IC50 (HCV NS5B) is on record?
**A.** Its IC50 is ≤ 500 nM.

**Q.** And the EC50 [1]?
**A.** Its EC50 is < 1000 nM.

**Q.** Which IC50 (HCV NS5B) does the source give for CNC(=O)c1c(-c2ccc(F)cc2)oc2cc(N(COC)S(C)(=O)=O)c(O)cc12 [Example 444, 2-(4-Fluoro-phenyl)-5-hydroxy-6-(methanesulfonyl-methoxymethyl-amino)-benzofuran-3-carboxylic acid methylamide] here?
**A.** Its IC50 is ≤ 500 nM.

**Q.** What about the EC50 [1] of the same compound?
**A.** The EC50 was < 10000 nM.

**Q.** Which IC50 (HCV NS5B) does the source give for CCCOc1cc2c(C(=O)NC)c(-c3ccc(F)cc3)oc2cc1NS(C)(=O)=O [Example 445, 2-(4-Fluoro-phenyl)-6-methanesulfonylamino-5-propoxy-benzofuran-3-carboxylic acid methylamide] here?
**A.** The IC50 was ≤ 500 nM.

**Q.** What about the EC50 [1] of the same compound?
**A.** Its EC50 is < 1000 nM.

**Q.** Which IC50 (HCV NS5B) does the source give for CNC(=O)c1c(-c2ccc(F)cc2)oc2cc(N(COC)S(C)(=O)=O)c(OCc3ccc(C#N)cc3)cc12 [Example 446, 5-(4-Cyano-benzyloxy)-2-(4-fluoro-phenyl)-6-(methanesulfonyl-methoxymethyl-amino)-benzofuran-3-carboxylic acid methylamide] here?
**A.** The IC50 was ≤ 500 nM.

**Q.** What about the EC50 [1] of the same compound?
**A.** The EC50 was < 1000 nM.

**Q.** Which results are given for CNC(=O)c1c(-c2ccccc2)oc2ccc(OC)cc12 [Example 452, 5-Methoxy-2-phenyl-benzofuran-3-carboxylic acid methylamide]?
**A.** IC50 (HCV NS5B): ≤ 500 nM; EC50 [1]: > 10000 nM
